Measurements as given in patent publication US20260256868A1, “COMBINATION HERBAL MEDICINES FOR THE TREATMENT OF INFLAMMATORY BOWEL DISORDERS” (EVINATURE LTD., priority 2022, published 2026).

Tested on: cytochrome P450 1A1 (CYP1A1)
Assay: CYP1A1 expression in colonic mucosal tissue of UC patients by RT-PCR (Example 8)
Assay type: in vivo, human
Settings: mucosal healing (Mayo sub-score 0/1) after treatment
Excerpt: AhR is a ligand-activated transcription factor that ultimately acts in the nucleus in promoting transcription of various genes, including among others cytochrome P450 1A1 (CYP1A1) which is one of the most important xenobiotic-metabolizing enzymes and an important regulator of immune response in the intestine. Therefore, the inventors studied the expression of CYP1A1 in samples of colonic mucosal tissue obtained from UC patients, using RT-PCR.
Samples of colonic tissue were obtained during lower endoscopy from UC patients treated with CurQD and patients treated by other medications or placebo. Tissue specimens were immersed in liquid nitrogen. Biopsy samples were lysed and homogenized in TRI-Reagent and extracted according to the manufacturer's instructions (Life technologies, USA). Reverse transcription was performed on lug total RNA using the High Capacity RNA to cDNA kit according to the manufacturer's instructions (Applied Biosystems Foster City, CA USA) and Hs01054796_g1 assay for CYP1A1 and Hs99999905_m1 assay for GAPDH (housekeeping gene).

- median CYP1A1 expression in patients who achieved mucosal healing: 4.6
Compound: Nc1ccc(O)c(C(=O)O)c1 [Batch 5ASA, 5-aminosalicylic acid]
